Measured values as given in publication PMC4434416, “Purification and biochemical characterization of a newly produced yellow laccase from Lentinus squarrosulus MR13” (3 Biotech, 2014).

Test system: yellow laccase
Settings: 35 °C; pH of the kinetic assay not stated; printed ABTS range 40–600 mM

CCn1c(=NN=c2sc3cc(S(=O)(=O)O)ccc3n2CC)sc2cc(S(=O)(=O)O)ccc21 [ABTS, 2,2′-Azinobis-(3-ethylbenzothiazoline-6-sulfonic acid)]
Km: 71.4 µM
